Measurements: PMC3836662, “New Antimalarial Hits from Dacryodes edulis (Burseraceae) - Part I: Isolation, In Vitro Activity, In Silico “drug-likeness” and Pharmacokinetic Profiles” (PLoS ONE, 2013)
In brackets after ≈: the same amount, converted by molar mass. Entries after “also recorded” stand apart in the source; their conditions may differ. Read-outs that look alike come from different tables or passages of the source. One block for each compound: values may come before it.

How the values were obtained:
[1] = test system: Dd2 (multidrug-resistant) strain of Plasmodium falciparum; assay: Antiplasmodial screen, parasite lactate dehydrogenase (pLDH) assay, Dd2 strain; format: cell-based; conditions: for Activity against Dd2 IC50 / Activity against Dd2 IC95: P. falciparum Dd2, pLDH assay; for IC50: Plasmodium falciparum
Protocol: (§1) The 3D7 (MRA-102), and Dd2 (MRA-615) strains were kindly donated by BEI-Resources (MR4, Manassas, VA, USA), and maintained in continuous culture, with back up stored in liquid nitrogen.
(§2) The laboratory strains of P. falciparum were grown and maintained in culture using the method of Trager and Jensen with some modifications. All the chemicals except Albumax II (Gibco; Invitrogen, USA), were ordered from Sigma-Aldrich Inc (Germany). The cultures were monitored and parasitemia assessed using both fluorescence (acridine orange) and normal light (Giemsa stain) microscopes.
(§3) The antiplasmodial screen was carried out in 96-well microtitration plates as described by Desjardins et al. with some modifications. The different drug stock solutions were prepared by predisolving the powder in DMSO (200 µL for a final volume of 10 mL stock solution) and subsequently with the culture medium. The parasitaemia was measured using the parasite lactate dehydrogenase (pLDH) assay as previously described.
(§4) Each product was tested in triplicate, in two to three separate experiments, giving a total of six to nine repeats per product and per concentration tested. The IC50 and CC50 values obtained from the replicates were pooled and expressed as geometric mean IC50 and standard deviation. The different means were compared among themselves by independent samples t-test.

[2] = test system: 3D7 (chloroquine-susceptible) strain of Plasmodium falciparum; assay: Antiplasmodial screen, parasite lactate dehydrogenase (pLDH) assay, 3D7 strain; format: cell-based; conditions: for Activity against 3D7 IC50 / Activity against 3D7 IC95: P. falciparum 3D7, pLDH assay; for IC50: Plasmodium falciparum
Protocol: as §1, §2, §3, §4

[3] = test system: LLC-MK2 monkey kidney epithelial cells; assay: Cytotoxicity on LLC-MK2 cells; format: cell-based; conditions: SI = CC50/IC50, LLC-MK2 vs Dd2
Protocol: (§5) The cytotoxicity of the extracts and pure compounds were estimated on LLC-MK2 monkey kidney epithelial cells as previously described with some modifications. The cell line was ordered from the American Type Culture Collection (ATCC, Manassas, Virginia, USA) and maintained in continuous culture.
as §4
(§6) The selectivity index defined as SI = CC50/IC50 was equally considered for compounds with mild cytotoxicity with SI<10 for toxic products. Based on these cut-off values, all products isolated from D. edulis in the present study were non-toxic against the LLC-MK2 cell-line.

[4] = Cytotoxicity on LLC-MK2 cells; format: cell-based, monkey; conditions: monkey, LLC-MK2 cells, read-out: Cytotoxicity against LLC-MK2 CC50
Protocol: as §5, §4, §6

Dd2 [5] = assay: Drug-interaction study, fixed-ratio combinations, FIC / Combination Index / isobologram; format: cell-based, Plasmodium falciparum; conditions: for Increase of activity on combining DES4 and quinine: DES4 plus quinine
Protocol: From the results obtained with individual drugs, a stock solution of 32 x IC50 of each drug was prepared and used in preparing a series of six combinations ([1]–[6]) containing 5:0, 4:1, 3:2, 2:3, 1:4 and 0:5 proportions volume:volume of Drug A versus Drug B respectively. Each of these formulations were then tested and their different inhibitory concentrations determined separately.
IC50 values obtained for the different drug mixtures were used to calculate the Fractional Inhibitory Concentration (FIC) for each drug as described previously. FIC-A for example measures how much the presence of Drug B affects the activity of Drug A in the mixture, and vis versa.
FIC−A=IC50−A(comb.)/IC50−A(alone)
FIC−B=IC50−B(comb.)/IC50−B(alone)
A graph was constructed with the axes representing the mean FIC of linear scales, with mean FIC-A on the x axis and FIC-B on the y axis. When the combination is additive, the isobole which is the line joining the points that represent all the (x, y) points is straight. Synergistic combinations give concave isoboles, and antagonistic combinations give convex isoboles.
CI values were therefore calculated separately for both the drugs present in combinations 2 through 5; combinations 1 and 6 containing Drug A and Drug B alone. In addition to analyzing the result obtained with each drug combination formula, an overall mean CI value for the four combinations was determined to conclude on the interaction patterns of the two drugs being tested. Synergy or antagonism was defined as a mean CI< or >1, respectively, and lack of interaction (also termed additivity) defined as CI= 1 [21].
IC50 values were used to calculate the Fractional Inhibitory Concentration (FIC) for each drug as described previously. FIC-A measures how much the presence of a Drug B affects the activity of Drug-A in the mixture. […] Statistical significance was defined as p<0.05. A graph was constructed with the axes representing the mean FIC of linear scales, with mean FIC-A on the x-axis and FIC-B on the y-axis. When the combination is additive, the isobole which is the line joining the points that represent all the (x, y) points is straight. Synergistic combinations give concave isoboles, and antagonistic combinations give convex isoboles.
The overall mean CI value for the four combinations formulae was finally determined and synergy or antagonism between the two drugs in combination, defined as a mean CI< or >1, respectively, lack of interaction or additivity defined as CI = 1 [21].

Dd2 [6] = assay: Stage-specific activity: variation of IC50 with exposure time, sorbitol-synchronized ring stage culture; format: cell-based; conditions: Plasmodium falciparum
Excerpt: As a preliminary study towards the understanding of the mechanisms of action of the active drugs, the stage-specific activity of the products was studied by investigation of the variation in IC50 values with exposure time.
Figure 2 Variation of IC50 against Dd2 with exposure time. […] The IC50 values presented were obtained from two distinct experiments run in duplicate each.

[7] = DD2, P. falciparum Dd2, pLDH assay, read-out: Activity against Dd2 IC50
[8] = 3D7, P. falciparum 3D7, pLDH assay, read-out: Activity against 3D7 IC50
[9] = 3D7, read-out: Activity against 3D7 IC50, P. falciparum 3D7, pLDH assay
[10] = Dd2, synchronized ring stage, 24 hours exposure, read-out: IC50 against Dd2, exposure time 24 hours
[11] = Dd2, synchronized ring stage, 48 hours exposure, read-out: IC50 against Dd2, exposure time 48 hours
[12] = DES4 combined with quinine, Dd2

Activity against Dd2 IC50 [1]: 5.34 ± 0.98 µg/mL | IC50 [1, 7]: < 10 µg/mL | Activity against 3D7 IC50 [2]: 1.90 ± 0.22 µg/mL | Activity against 3D7 IC50 ([2]; listed as Sitosterol 3-O-β-D-glucopyranoside): below 10 µg/mL
SMILES: CC[C@H](CCC(C)C1CCC2C3CC=C4C[C@@H](O[C@@H]5O[C@H](CO)[C@@H](O)[C@H](O)[C@H]5O)CC[C@]4(C)C3CC[C@]12C)C(C)C (stereo partly drawn) [DES5, sitosterol 3-O-β-D-glucopyranoside sterol]
Activity against Dd2 IC95 [1]: 21.35 ± 0.44 µg/mL | Activity against 3D7 IC95 [2]: 4.38 ± 0.87 µg/mL | Selectivity index/Dd2 [3]: > 18 | CC50 ([4]; LLC-MK2 monkey kidney epithelial cells): > 100 µg/mL

SMILES: O=c1c(O)c(-c2ccc(O)c(O)c2)oc2cc(O)cc(O)c12 [DES3, Quercetin]
Activity against Dd2 IC50 [1]: 5.91 ± 0.97 µg/mL | Activity against Dd2 IC95 [1]: 15.96 ± 4.79 µg/mL | IC50 [1, 7]: < 10 µg/mL | Activity against 3D7 IC50 [2]: 6.07 ± 0.34 µg/mL | Activity against 3D7 IC95 [2]: 15.19 ± 3.88 µg/mL | IC50 [2, 8]: < 10 µg/mL | Selectivity index/Dd2 [3]: > 17 | CC50 [4]: > 100 µg/mL

SMILES: C[C@@H]1O[C@@H](Oc2c(-c3ccc(O)cc3)oc3cc(O)cc(O)c3c2=O)[C@H](O)[C@H](O)[C@H]1O [DES2, Afzelin]
Activity against Dd2 IC50 [1]: inactive | Activity against Dd2 IC95 [1]: 35.03 ± 3.52 µg/mL | IC50 ([1]; DD2, read-out: Activity against Dd2 IC50, P. falciparum Dd2, pLDH assay): 19.3 ± 1.56 µg/mL (≈ 44.7 µM) | Activity against 3D7 IC95 [2]: 13.64 ± 0.48 µg/mL | IC50 [2, 9]: 4.59 ± 0.21 µg/mL (≈ 10.6 µM) | Selectivity index/Dd2 [3]: > 5 | CC50 [4]: > 100 µg/mL

SMILES: C=C[C@H]1C[N@@]2CC[C@H]1C[C@H]2[C@H](O)c1ccnc2ccc(OC)cc12 [QN, Quinine sulphate, reference compound]
Increase of activity on combining DES4 and quinine (Dd2 [5]): 6 fold | Activity against Dd2 IC95 [1]: 0.38 ± 0.08 µg/mL | IC50 [1, 7]: 0.12 ± 0.01 µg/mL | Activity against 3D7 IC95 [2]: 0.48 ± 0.10 µg/mL | IC50 [2, 8]: 0.13 ± 0.01 µg/mL | IC50 (Dd2 [6]; [10]): 0.21 µg/mL | IC50 (Dd2 [6]; [11]): 0.18 µg/mL

SMILES: COC(=O)c1cc(O)c(O)c(O)c1 [DES4, methyl 3,4,5-trihydroxybenzoate]
Combination Index, overall value (Dd2 [5]; DES4 combined with artemether): 1.10 | Interaction pattern with artemether (Dd2 [5]; DES4 combined with artemether): additivity; also recorded: only additive effects | Combination Index, Combination 2 (Dd2 [5]; DES4 combined with quinine, Combination 2 (4:1), Dd2): 1.05 | Combination Index, mean value (Dd2 [5]; [12]): 0.65 | Interaction pattern with quinine (Dd2 [5]; [12]): synergy; also recorded: synergistic interactions | Increase of activity on combining DES4 and quinine (Dd2 [5]): 3 fold | Activity against Dd2 IC95 [1]: 5.89 ± 0.95 µg/mL | Activity against 3D7 IC95 [2]: 2.58 ± 2.04 µg/mL | IC50 [2, 8]: 0.37 ± 0.07 µg/mL (≈ 2.01 µM) | IC50 (Dd2 [6]; [10]): 6.32 µg/mL (≈ 34.3 µM) | IC50 (Dd2 [6]; [11]): 0.56 µg/mL (≈ 3.04 µM) | Selectivity index/Dd2 [3]: > 182 | CC50 [4]: > 100 µg/mL

SMILES: C[C@@H]1O[C@@H](Oc2c(-c3ccc(O)c(O)c3)oc3cc(O)cc(O)c3c2=O)[C@H](O)[C@H](O)[C@H]1O [DES1, Quercitrin]
Activity against Dd2 IC50 [1]: below 10 µg/mL | Activity against Dd2 IC95 [1]: 23.82 ± 6.35 µg/mL | Activity against 3D7 IC50 [2]: 5.96 ± 0.51 µg/mL | Activity against 3D7 IC95 [2]: 18.53 ± 3.13 µg/mL | IC50 [2, 9]: < 10 µg/mL | IC50 (Dd2 [6]; DD2, 24 h, read-out: IC50 against Dd2, exposure time 24 hours): 1.41 µg/mL (≈ 3.14 µM) | IC50 (Dd2 [6]; DD2, 48 h, read-out: IC50 against Dd2, exposure time 48 hours): 2.19 µg/mL (≈ 4.88 µM) | Selectivity index/Dd2 [3]: > 44 | CC50 [4]: > 100 µg/mL

IC50 [1, 7]: 0.03 ± 0.01 µg/mL (≈ 0.101 µM) | IC50 [2, 8]: 0.02 ± 0.01 µg/mL (≈ 0.067 µM)
SMILES: CO[C@H]1O[C@@H]2O[C@@]3(C)CC[C@H]4[C@H](C)CC[C@@H]([C@H]1C)[C@@]24OO3 [ART, artemether, reference compound]
Activity against Dd2 IC95 [1]: 0.12 ± 0.09 µg/mL | Activity against 3D7 IC95 [2]: 0.08 ± 0.02 µg/mL
